Experimental data reported in patent publication US9884863B2, “STAT3 inhibitor” (Board of Regents, The University of Texas System, priority 2013, dated 2018).

Columns and labels:
[1] = test system: MDA-MB-231 cells; experiment: Apoptosis assay (annexin V, flow cytometry); assay type: cell-based, human; details: dose-dependent; Example 3 numbering
Experimental: Cell Cycle Assay and Apoptosis Assay: Cell cycle and apoptosis kits (#MCH100106 and #MCH100105, Millipore, Mass.) were used. […] 24 and 48 h after drug treatment, both adherent and floating cells were collected, washed once with PBS and fixed in cold ethanol for at least 4 h before cell cycle analysis. The fixed cells were then washed twice with PBS and resuspended in 200 μL cell cycle detection reagent, incubated for 30 minutes in dark at room temperature. Cell cycle distribution was measured by the Muse Cell Analyzer with Muse™ Cell Cycle. Similarly, MDA-MB-231 cells with the same treatments were prepared for apoptosis assay. After washing with PBS, resuspended cells were incubated with 100 μL PBS containing 1% BSA and 100 μL Annexin V and dead cell detection reagent in dark for 20 minutes at room temperature. Apoptosis was measured immediately using the Muse Cell Analyzer with the Muse™ Apoptosis Program.

[2] = test system: MCF-7; experiment: MTS cell proliferation assay, MCF-7; assay type: cell-based, human; details: Homo sapiens, MCF7, 72 h, read-out: IC50 MCF-7 (Table 4)
Procedure, shortened: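 MCF-7 human breast cancer cells were exposed to test compounds at a range of concentrations, then proliferation was measured with the MTS reagent from Promega's CellTiter 96 AQueous Non-Radioactive Cell Proliferation Assay kit. After 1 hr at 37° C., OD at 550 nm was read on a 96-well iMark Microplate Absorbance Reader, with quadruplicate wells per concentration.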

[3] = assay type: in vivo; details: oral gavage 14 days; HJC0152 25 mg/kg, niclosamide 75 mg/kg
Experimental: Female nude mice at 4 to 6 wk of age were obtained from MDACC ERO facility. The mice were maintained in a barrier unit with 12 hours light-dark switch room and all materials were autoclaved. Freshly harvested MDA-MB-231 cells (2.5×10^6 cells per mouse, resuspended in 100 μl PBS) were injected into the 3rd mammary fat pad of the mice, and then mice were randomly assigned into control and treatment groups (≧6 mice per group). Treatment started when the xenograft mammary tumors reaches a volume of 200 mm^3. […] Mice were monitored daily for general health conditions (body weight, fur coat condition and posture) and toxicity (hair loss, skin rash, abdominal distension). […] Tumor volume was calculated as V=W^2×L/2, where L=longer diameter (mm) and W=width of short diameter (mm). […]
Female nude mice were obtained from MDACC and were used for orthotopic tumor studies at 4 to 6 weeks of age. […] Body weights and tumors volume were measured daily and tumor volume was calculated according to the formula V=0.5×L×W^2, where L=length (mm) and W=width (mm).
Twenty-two female nude mice (8 wks of age) were obtained from MDACC ERC Center. […] Body weights and tumors volume were measured daily and tumor volume calculated using the formula V=0.5×L×W^2, where L=length (mm) and W=width (mm) of xenograft tumors. Signs of toxicity were recorded individually. […]

[4] = test system: STAT family, STAT3-dependent genes and JAKs in MDA-MB-231 cells; experiment: Western blot analysis, MDA-MB-231 cells; assay type: cell-based, human; details: 24 h; Example 3 numbering
Experimental: Blocking STAT3 signaling in many different tumor cells leads to induce growth arrest and apoptosis (Turkson, J. et al., 2000; Bromberg, J., 2002; Zhang, X. et al., 2012).
Western Blot Analysis. Protein levels were determined by Western blot using the previously described methods (Shen, Q. et al., 2008). Total cell lysates were prepared from MDA-MB-231 cells. Protein concentrations were measured using the BCA Protein Assay Reagent (Pierce, Rockford, Ill., USA). Equal amounts of total cellular protein extract (40 μg) were resuspended in denaturing sample loading buffer (0.5 M Tris-HCl, pH 6.8, 10% SDS, 0.1% bromophenol blue, and 20% glycerol), separated by electrophoresis on a 10% polyacrylamide SDS-PAGE gel and then electrophoretically transferred to a nitrocellulose membrane (Thermo Scientific, Ill., USA) at 100 Volts for 1 h at 4° C. The membrane was then incubated in a blocking solution containing 5% non-fat milk and 1% Tween 20 in TBS for 1 h. The membrane was then incubated with antibodies specific for: phospho-STAT3-pY705 (1:3000, Epitomics, #2236-1), STAT3 (1:2000, Cell Signaling, #4904), Caspase-3-cleaved (1:2000, Epitomics, #1476-1), Cyclin D1 (1:10000, Epitomics, #2261-1) and β-actin (1:10000, Sigma, clone AC-15). An anti-rabbit or anti-mouse secondary antibody (Amersham, Piscataway, N.J.) was used at 1:4000 dilution. The Western blotted bands were visualized using ECL procedure according to the manufacturer's instructions (Amersham).

[5] = test system: Panc-1; experiment: MTS cell proliferation assay, Panc-1; assay type: cell-based, human; details: Homo sapiens, PANC-1, 72 h, read-out: IC50 Panc-1 (Table 4)
Procedure, shortened: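 Cells seeded at 2×10^3 cells/well and exposed 72 h to DMSO or 0.01–100 μM STAT3 inhibitor, quadruplicate wells per concentration. Proliferation read by MTS reduction, OD 550 nm after 1 h at 37 °C.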

O=C(Nc1ccc([N+](=O)[O-])cc1Cl)c1cc(Cl)ccc1O [niclosamide, reference compound]
apoptosis, annexin V (Example 3) [1]: activated apoptosis | IC50 [2]: 1060 nM | toxicity signs in treated mice [3]: No toxicity signs | phosphorylated STAT3 at Tyr-705 (Example 3) [4]: suppressed | total STAT3 level (Example 3) [4]: reduced | IC50 [5]: 1730 nM
